Patent US7820650B2, “Antifungal 4-substituted 5,6-dihydro-4H-pyrrolo [1,2-a][1,4]benzodiazepines” (Janssen Pharmaceutica NV, priority 2000, dated 2010)

How the values were obtained:
Experiment in all cases: Determination of fungal susceptibility (MIC, microdilution in CYG medium)
Assay type in all cases: cell-based
[1] = test system: Aspergillus fumigatus; conditions: single isolate, 5 days at 30° C., growth (OD 405 nm) inhibited to 35% of control or less
Method: (§1) A panel single isolates of the dermatophytes Sporothrix schenckii; Microsporum canis; Trichophyton rubrum; Trichophyton mentagrophyte; Candida parapsilosis; Cryptococcus neoformans; and Aspergillus fumigatus were used to evaluate the activity of the test compounds in vitro. Inocula were prepared as broth cultures (yeasts) or as suspensions of fungal material made from agar slope cultures (moulds). The test compounds were pipetted from dimethylsulfoxide stock solution into water to provide a series of 10-fold dilutions. The fungal inocula were suspended in the growth medium CYG (F.C. Odds, Journal of Clinical Microbiology, 29, 2735-2740, 1991) at approximately 50,000 colony-forming units (CFU) per ml and added to the aqueous test drugs. The cultures were set up in the 96 wells of plastic microdilution plates and they were incubated for 2 days at 37° C. (Candida spp.) or for 5 days at 30° C. (other fungi). Growth in the microcultures was measured by their optical density (OD) measured at a wavelength of 405 nm. The OD for cultures with test compounds was calculated as a percentage of the OD for control cultures, i.e. the OD for cultures without test compounds. Inhibition of growth to 35% of control or less was recorded as significant inhibition. Minimal inhibitory concentration (MIC; in 10^−6 M) of some of the compounds of formula (I) for the tested species are listed in Table.

[2] = test system: Candida parapsilosis; conditions: single isolate, 2 days at 37° C., growth (OD 405 nm) inhibited to 35% of control or less
Method: as §1

[3] = test system: Cryptococcus neoformans; conditions: single isolate, 5 days at 30° C., growth (OD 405 nm) inhibited to 35% of control or less
Method: as §1

[4] = test system: Microsporum canis; conditions: single isolate, 5 days at 30° C., growth (OD 405 nm) inhibited to 35% of control or less
Method: as §1

[5] = test system: Sporothrix schenckii; conditions: single isolate, 5 days at 30° C., growth (OD 405 nm) inhibited to 35% of control or less
Method: as §1

[6] = test system: Trichophyton mentagrophytes; conditions: single isolate, 5 days at 30° C., growth (OD 405 nm) inhibited to 35% of control or less
Method: as §1

[7] = test system: Trichophyton rubrum; conditions: single isolate, 5 days at 30° C., growth (OD 405 nm) inhibited to 35% of control or less
Method: as §1

## Br.CCCCc1ccc(C2NCc3c(Cl)cccc3-n3cccc32)cc1 (stereo not drawn) [Comp. 8]
[1]
  MIC values, Aspergillus fumigatus: >10 10^−6 M
[2]
  MIC values, Candida parapsilosis: >10 10^−6 M
[3]
  MIC values, Cryptococcus neoformans: >10 10^−6 M
[4]
  MIC values, Microsporum canis: 1 10^−6 M
[5]
  MIC values, Sporothrix schenkii: >10 10^−6 M
[6]
  MIC values, Trichophyton mentagrophytes: 1 10^−6 M
[7]
  MIC values, Trichophyton rubrum: 0.1 10^−6 M

## Br.CCc1ccc(C2NCc3ccccc3-n3cccc32)cc1 (stereo not drawn) [Comp. 13]
[1]
  MIC values, Aspergillus fumigatus: >10 10^−6 M
[2]
  MIC values, Candida parapsilosis: >10 10^−6 M
[3]
  MIC values, Cryptococcus neoformans: >10 10^−6 M
[4]
  MIC values, Microsporum canis: >10 10^−6 M
[5]
  MIC values, Sporothrix schenkii: >10 10^−6 M
[6]
  MIC values, Trichophyton mentagrophytes: 3.2 10^−6 M
[7]
  MIC values, Trichophyton rubrum: 1 10^−6 M

## Br.Cc1ccc(C2NCc3ccc(Cl)cc3-n3cccc32)cc1 (stereo not drawn) [Comp. 19]
[1]
  MIC values, Aspergillus fumigatus: >10 10^−6 M
[2]
  MIC values, Candida parapsilosis: >10 10^−6 M
[3]
  MIC values, Cryptococcus neoformans: >10 10^−6 M
[4]
  MIC values, Microsporum canis: 10 10^−6 M
[5]
  MIC values, Sporothrix schenkii: >10 10^−6 M
[6]
  MIC values, Trichophyton mentagrophytes: 3.2 10^−6 M
[7]
  MIC values, Trichophyton rubrum: 0.32 10^−6 M

## Br.N#Cc1ccc(C2NCc3ccc(Cl)cc3-n3cccc32)cc1 (stereo not drawn) [Comp. 20]
[1]
  MIC values, Aspergillus fumigatus: >10 10^−6 M
[2]
  MIC values, Candida parapsilosis: >10 10^−6 M
[3]
  MIC values, Cryptococcus neoformans: >10 10^−6 M
[4]
  MIC values, Microsporum canis: >10 10^−6 M
[5]
  MIC values, Sporothrix schenkii: >10 10^−6 M
[6]
  MIC values, Trichophyton mentagrophytes: >10 10^−6 M
[7]
  MIC values, Trichophyton rubrum: 0.32 10^−6 M

## CCc1ccc(C2NCc3cc(Cl)ccc3-n3cccc32)cc1 (stereo not drawn) [Comp. 11]
[1]
  MIC values, Aspergillus fumigatus: >10 10^−6 M
[2]
  MIC values, Candida parapsilosis: >10 10^−6 M
[3]
  MIC values, Cryptococcus neoformans: >10 10^−6 M
[4]
  MIC values, Microsporum canis: >10 10^−6 M
[5]
  MIC values, Sporothrix schenkii: >10 10^−6 M
[6]
  MIC values, Trichophyton mentagrophytes: 3.2 10^−6 M
[7]
  MIC values, Trichophyton rubrum: 3.2 10^−6 M

## Br.CCCc1ccc(C2NCc3c(Cl)cccc3-n3cccc32)cc1 (stereo not drawn) [Comp. 9]
[1]
  MIC values, Aspergillus fumigatus: >10 10^−6 M
[2]
  MIC values, Candida parapsilosis: 3.2 10^−6 M
[3]
  MIC values, Cryptococcus neoformans: >10 10^−6 M
[4]
  MIC values, Microsporum canis: 0.32 10^−6 M
[5]
  MIC values, Sporothrix schenkii: >10 10^−6 M
[6]
  MIC values, Trichophyton mentagrophytes: 0.32 10^−6 M
[7]
  MIC values, Trichophyton rubrum: 0.1 10^−6 M

## Br.CCOc1ccc(C2NCc3ccc(Cl)cc3-n3cccc32)cc1 (stereo not drawn) [Comp. 17]
[1]
  MIC values, Aspergillus fumigatus: >10 10^−6 M
[2]
  MIC values, Candida parapsilosis: >10 10^−6 M
[3]
  MIC values, Cryptococcus neoformans: >10 10^−6 M
[4]
  MIC values, Microsporum canis: >10 10^−6 M
[5]
  MIC values, Sporothrix schenkii: >10 10^−6 M
[6]
  MIC values, Trichophyton mentagrophytes: 10 10^−6 M
[7]
  MIC values, Trichophyton rubrum: 10 10^−6 M

## Br.CC(C)c1ccc(C2NCc3ccc(Cl)cc3-n3cccc32)cc1 (stereo not drawn) [Comp. 18]
[1]
  MIC values, Aspergillus fumigatus: >10 10^−6 M
[2]
  MIC values, Candida parapsilosis: >10 10^−6 M
[3]
  MIC values, Cryptococcus neoformans: >10 10^−6 M
[4]
  MIC values, Microsporum canis: >10 10^−6 M
[5]
  MIC values, Sporothrix schenkii: >10 10^−6 M
[6]
  MIC values, Trichophyton mentagrophytes: 1 10^−6 M
[7]
  MIC values, Trichophyton rubrum: 1 10^−6 M

## Br.CC(C)c1ccc(C2NCc3ccccc3-n3cccc32)cc1 (stereo not drawn) [Comp. 4]
[1]
  MIC values, Aspergillus fumigatus: >10 10^−6 M
[2]
  MIC values, Candida parapsilosis: >10 10^−6 M
[3]
  MIC values, Cryptococcus neoformans: >10 10^−6 M
[4]
  MIC values, Microsporum canis: 10 10^−6 M
[5]
  MIC values, Sporothrix schenkii: >10 10^−6 M
[6]
  MIC values, Trichophyton mentagrophytes: 3.2 10^−6 M
[7]
  MIC values, Trichophyton rubrum: 3.2 10^−6 M

## CCc1ccc(C2c3cccn3-c3cccc(Cl)c3CN2C)cc1 (stereo not drawn) [Comp. 10, 4-(4′-ethylphenyl)-5-methyl-7-chlorobenzo[1,2]-pyrrolo-[1,2a][1,4]diazepine]
[1]
  MIC values, Aspergillus fumigatus: >10 10^−6 M
[2]
  MIC values, Candida parapsilosis: >10 10^−6 M
[3]
  MIC values, Cryptococcus neoformans: >10 10^−6 M
[4]
  MIC values, Microsporum canis: >10 10^−6 M
[5]
  MIC values, Sporothrix schenkii: >10 10^−6 M
[6]
  MIC values, Trichophyton mentagrophytes: 10 10^−6 M
[7]
  MIC values, Trichophyton rubrum: 3.2 10^−6 M

## Br.CC(C)(C)c1ccc(C2NCc3c(Cl)cccc3-n3cccc32)cc1 (stereo not drawn) [Comp. 7]
[1]
  MIC values, Aspergillus fumigatus: >10 10^−6 M
[2]
  MIC values, Candida parapsilosis: 10 10^−6 M
[3]
  MIC values, Cryptococcus neoformans: >10 10^−6 M
[4]
  MIC values, Microsporum canis: 0.32 10^−6 M
[5]
  MIC values, Sporothrix schenkii: 10 10^−6 M
[6]
  MIC values, Trichophyton mentagrophytes: 1 10^−6 M
[7]
  MIC values, Trichophyton rubrum: 0.1 10^−6 M

## Br.COc1ccc(C2NCc3c(Cl)cccc3-n3cccc32)cc1 (stereo not drawn) [Comp. 1]
[1]
  MIC values, Aspergillus fumigatus: 10 10^−6 M
[2]
  MIC values, Candida parapsilosis: >10 10^−6 M
[3]
  MIC values, Cryptococcus neoformans: >10 10^−6 M
[4]
  MIC values, Microsporum canis: 5.5 10^−6 M
[5]
  MIC values, Sporothrix schenkii: >10 10^−6 M
[6]
  MIC values, Trichophyton mentagrophytes: 2.1 10^−6 M
[7]
  MIC values, Trichophyton rubrum: 2.1 10^−6 M

## Br.CCc1ccc(C2NCc3ccc(Cl)cc3-n3cccc32)cc1 (stereo not drawn) [Comp. 16]
[1]
  MIC values, Aspergillus fumigatus: >10 10^−6 M
[2]
  MIC values, Candida parapsilosis: >10 10^−6 M
[3]
  MIC values, Cryptococcus neoformans: >10 10^−6 M
[4]
  MIC values, Microsporum canis: 1 10^−6 M
[5]
  MIC values, Sporothrix schenkii: >10 10^−6 M
[6]
  MIC values, Trichophyton mentagrophytes: 1 10^−6 M
[7]
  MIC values, Trichophyton rubrum: 0.1 10^−6 M

## Br.FC(F)(F)c1cccc(C2NCc3c(Cl)cccc3-n3cccc32)c1 (stereo not drawn) [Comp. 3]
[1]
  MIC values, Aspergillus fumigatus: 10 10^−6 M
[2]
  MIC values, Candida parapsilosis: >10 10^−6 M
[3]
  MIC values, Cryptococcus neoformans: >10 10^−6 M
[4]
  MIC values, Microsporum canis: 2.1 10^−6 M
[5]
  MIC values, Sporothrix schenkii: >10 10^−6 M
[6]
  MIC values, Trichophyton mentagrophytes: 3.2 10^−6 M
[7]
  MIC values, Trichophyton rubrum: 2.1 10^−6 M

## CC(C)c1ccc(C2NCc3c(F)cccc3-n3cccc32)cc1 (stereo not drawn) [Comp. 14]
[1]
  MIC values, Aspergillus fumigatus: >10 10^−6 M
[2]
  MIC values, Candida parapsilosis: >10 10^−6 M
[3]
  MIC values, Cryptococcus neoformans: >10 10^−6 M
[4]
  MIC values, Microsporum canis: 10 10^−6 M
[5]
  MIC values, Sporothrix schenkii: >10 10^−6 M
[6]
  MIC values, Trichophyton mentagrophytes: 1 10^−6 M
[7]
  MIC values, Trichophyton rubrum: 0.32 10^−6 M

## CCc1ccc(C2NCc3c(F)cccc3-n3cccc32)cc1 (stereo not drawn) [Comp. 15]
[1]
  MIC values, Aspergillus fumigatus: 10 10^−6 M
[2]
  MIC values, Candida parapsilosis: 10 10^−6 M
[3]
  MIC values, Cryptococcus neoformans: >10 10^−6 M
[4]
  MIC values, Microsporum canis: 3.2 10^−6 M
[5]
  MIC values, Sporothrix schenkii: >10 10^−6 M
[6]
  MIC values, Trichophyton mentagrophytes: 1 10^−6 M
[7]
  MIC values, Trichophyton rubrum: 0.32 10^−6 M

## Br.Cc1ccc(C2NCc3c(Cl)cccc3-n3cccc32)cc1 (stereo not drawn) [Comp. 5]
[1]
  MIC values, Aspergillus fumigatus: >10 10^−6 M
[2]
  MIC values, Candida parapsilosis: >10 10^−6 M
[3]
  MIC values, Cryptococcus neoformans: >10 10^−6 M
[4]
  MIC values, Microsporum canis: 1 10^−6 M
[5]
  MIC values, Sporothrix schenkii: >10 10^−6 M
[6]
  MIC values, Trichophyton mentagrophytes: 1 10^−6 M
[7]
  MIC values, Trichophyton rubrum: 0.32 10^−6 M

## Br.CC(C)c1ccc(C2NCc3c(Cl)cccc3-n3cccc32)cc1 (stereo not drawn) [Comp. 6]
[1]
  MIC values, Aspergillus fumigatus: >10 10^−6 M
[2]
  MIC values, Candida parapsilosis: 10 10^−6 M
[3]
  MIC values, Cryptococcus neoformans: >10 10^−6 M
[4]
  MIC values, Microsporum canis: 0.32 10^−6 M
[5]
  MIC values, Sporothrix schenkii: >10 10^−6 M
[6]
  MIC values, Trichophyton mentagrophytes: 1 10^−6 M
[7]
  MIC values, Trichophyton rubrum: 0.32 10^−6 M
